Data as given in PubChem BioAssay (NCI).
“And” between values parts separate entries of the source, which are not always exact repeats. Identical values can stand only once.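 The compound was tested at five concentrations on cells cultured in 96-well plates, with a 48-hour exposure period. The concentration for 50% growth inhibition is given as GI50. TGI: total growth inhibition.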

How the values were obtained:
Assay in all cases: growth of human tumour cells (NCI), 48 h
[1] = test system: A498 renal
[2] = test system: HT29 colon
[3] = test system: IGROV1 ovarian
[4] = test system: K-562 leukemia
[5] = test system: LOX IMVI melanoma
[6] = test system: OVCAR-5 ovarian
[7] = test system: RPMI-8226 leukemia
[8] = test system: SF-295 CNS
[9] = test system: SN12C renal
[10] = test system: TK-10 renal

SMILES | GI50 [1] | TGI [1] | GI50 [2] | TGI [2] | GI50 [3] | TGI [3] | GI50 [4] | TGI [4] | GI50 [5] | TGI [5] | GI50 [6] | TGI [6] | GI50 [7] | TGI [7] | GI50 [8] | TGI [8] | GI50 [9] | TGI [9] | GI50 [10] | TGI [10]
O=C(NC(=S)Nc1ccc(Cl)cc1)c1ccccc1 | 33 µM | > 100 µM | > 100 µM | > 100 µM | > 87.7 µM | > 100 µM | > 100 µM | > 100 µM | > 100 µM | > 100 µM | > 100 µM | > 100 µM | > 100 µM | > 100 µM | > 65.1 µM | > 100 µM | > 100 µM | > 100 µM | > 100 µM | > 100 µM
COc1ccc(-c2nc(-c3cn(C)c4ncccc34)cs2)cc1 | 0.776 µM | 93.9 µM | 17.3 µM | > 100 µM | > 100 µM | > 100 µM | 5.05 µM | > 100 µM | 54.1 µM | > 100 µM | > 100 µM | > 100 µM | 37.1 µM | > 100 µM | 20.3 µM | > 100 µM | > 100 µM | > 100 µM | > 100 µM | > 100 µM
O=C1c2ccccc2-c2c1c1ccccc1c(=O)n2CCNCCNCCn1c2c(c3ccccc3c1=O)C(=O)c1ccccc1-2 | 14.4 µM | 29.9 µM | 0.017 µM | > 100 µM | 1.02 µM | > 21.2 µM | 0.33 µM | > 100 µM | 0.0437 µM | 1.76 µM | 8.91 µM | 34.5 µM | 0.011 µM | 1.24 µM | 0.0917 µM | 10.8 µM | 0.13 µM | 14.1 µM | 1.06 µM | 4.11 µM
O=C1OC2(c3ccccc3Oc3ccccc32)c2ccccc21 | – | > 100 µM | – | > 100 µM | – | > 100 µM | – | > 100 µM | – | > 100 µM | – | > 100 µM | – | > 100 µM | – | > 100 µM | – | > 100 µM | – | > 100 µM
Cc1[nH]c(/C=C2\C(=O)Nc3ccc(F)cc32)c(C)c1C(=O)NC[C@H](O)CN1CCOCC1 | 3.29 µM | > 10 µM | 2.91 µM | > 10 µM | 2.73 µM | > 10 µM | 4.96 µM | > 10 µM | 2.33 µM | > 10 µM | 2.85 µM | > 10 µM | 3.54 µM | > 10 µM | > 10 µM | > 10 µM | 3.05 µM | > 10 µM | 5.37 µM | > 10 µM
O=C(Nc1ncc(Cc2ccccc2Cl)s1)c1ccc2c(c1)OCCO2 | 0.151 µM | 0.693 µM | 0.616 µM | > 48.5 µM | 0.498 µM | > 57.8 µM | 0.183 µM | > 100 µM | 0.583 µM | > 100 µM | 0.747 µM | > 100 µM | 0.479 µM | > 100 µM | 0.346 µM | 5.04 µM | 0.614 µM | > 94 µM | 0.672 µM | > 40 µM
N=C(N)CCCCCCCCC(=N)N | 11.6 µM | 68.5 µM | 26.3 µM | > 100 µM | 52.9 µM | > 100 µM | 19.7 µM | > 100 µM | 31.8 µM | > 100 µM | 26.4 µM | > 100 µM | 31.1 µM | > 100 µM | 23.5 µM | 81.3 µM | 25.7 µM | > 100 µM | 32.2 µM | > 100 µM
COc1ccc(-c2cn[nH]c2-c2cc(OC)c(OC)c(OC)c2)cc1N | < 0.01 µM | – | < 0.01 µM and 0.0339 µM | > 100 µM | < 0.01 µM and 0.0415 µM | > 100 µM | < 0.01 µM | > 100 µM | < 0.01 µM and 0.0436 µM | > 100 µM | – | > 100 µM | < 0.01 µM and 0.0535 µM | 30.8 µM and 54.1 µM | < 0.01 µM and 0.0134 µM | > 100 µM | < 0.01 µM and 0.0802 µM | > 100 µM | – | > 100 µM
COC(=O)c1ccc(N=NN(C)CO)cc1 | – | > 100 µM | – | > 100 µM | – | > 100 µM | – | > 100 µM | – | > 100 µM | – | > 100 µM | – | > 100 µM | – | > 100 µM | – | > 100 µM | – | > 100 µM
Cc1cc2c(F)c(Oc3ncnn4cc(OC[C@@H](C)OC(=O)[C@H](C)N)c(C)c34)ccc2[nH]1 | 4.55 µM | 17.3 µM | 5.73 µM | 18.9 µM | 9.1 µM | 23.4 µM | 3.83 µM | 20.2 µM | 3.75 µM | 18.1 µM | 14.9 µM | 29.2 µM | 5.94 µM | 23.7 µM | 7.87 µM | 21.3 µM | 12.6 µM | 26.2 µM | 13.5 µM | 27.1 µM
COC(=O)c1nc(NC#N)[nH]c(=O)c1C | – | > 100 µM | – | > 100 µM | – | > 100 µM | – | > 100 µM | – | > 100 µM | – | > 100 µM | – | > 100 µM | – | > 100 µM | – | > 100 µM | – | > 100 µM
CS(=O)c1ccc(COP(N)(=O)N(CCCl)CCCl)cc1 (configuration not stated) | – | > 100 µM | – | > 100 µM | – | > 100 µM | – | > 100 µM | – | > 100 µM | – | > 100 µM | – | > 100 µM | – | > 100 µM | – | > 100 µM | – | > 100 µM
Cc1ccc2c(=O)c3cccc(CC(=O)O)c3oc2c1C | 70.6 µM | > 100 µM | > 100 µM | > 100 µM | > 100 µM | > 100 µM | > 100 µM | > 100 µM | > 100 µM | > 100 µM | > 100 µM | > 100 µM | > 100 µM | > 100 µM | > 100 µM | > 100 µM | > 100 µM | > 100 µM | > 100 µM | > 100 µM
CN(C)c1ccc2c3c(c(=O)oc2c1)CCC3 | – | > 100 µM | – | > 100 µM | – | > 100 µM | – | > 100 µM | – | > 100 µM | – | > 100 µM | – | > 100 µM | – | > 100 µM | – | > 100 µM | – | > 100 µM
